Data taken from patent publication US20070054868A1, “Synergistic polyphenol compounds, compositions thereof, and uses thereof” (The Trustees of Columbia University in the City of New York, priority 2005, published 2007).

Experiments:
FHC = assay: Growth inhibition IC50 against normal fetal colon cell line; assay type: cell-based, human; conditions: conclusion from Table 4
Text: Cell lines and cell culture. The Caco2, HCT116, HT29, SW480, and SW837 human colorectal cancer cell lines and the FHC normal human fetal colon cell line were obtained from American Type Culture Collection (Manassas, Va.). All cell lines were maintained in DF10 medium containing DMEM (Invitrogen, San Diego, Calif.) supplemented with 10% fetal bovine serum (Invitrogen). The FHC cell line was originally established from the colon of a human fetus at 13 weeks of gestation and has an epithelial morphology. Cells were cultured in an incubator with humidified air at 37° C. with 5% CO2. As an untreated solvent control, cells were treated with DMSO (Sigma Chemical Co., St. Louis, Mo.) at a final concentration of <0.1%. […] Cells to be tested against were plated onto 96-well plates (3×10^3 cells/well) and twenty-four hours later, the cells were treated with an illustrative Synergistic Polyphenol Composition, or one or more illustrative Synergistic Polyphenol Compounds. Neither the medium nor the test compounds were changed during this time period. The assay was done in triplicate. […] The medium and test compounds were not changed during this time period. As a control, the cells were treated with 0.1% DMSO. […] The numbers of cells in replica plates were then determined using a Coulter Counter (Beckman Coulter Co., Fullerton, Calif.) as described in Shimizu et al., Clin. Cancer Res. 2004: 10:1130-40.

[1] = test system: EGFR, HER2, HER3, Akt and ERK; assay: Western blot analysis in SW837 cells, total levels of the respective proteins; assay type: cell-based, human; conditions: 20 μg/mL, during the time course
Text: Total cellular protein was extracted and equivalent amounts of protein can be determined by western blot analysis using the methods described in Suzui, et al., Cancer Res., 62:3997-4006 (2002). The primary antibodies for several proteins are described in Masuda et al., Clin Cancer Res., 7:4220-4229 (2001); Masuda et al., Clin Cancer Res., 9:3486-3491 (2003); and Shimizu et al., Clin Cancer Res., 11:2735-2746 (2005). The primary antibodies for HER3 (2F12) and COX-2 (PG27) were purchased from Upstate Cell Signaling Solutions (Charlottesville, Va.) and Oxford Biochemical Research (Oxford, Mich.), respectively. To examine the levels of expression of the phosphorylated (i.e. activated) form of the HER3 protein (p-HER3), cellular lysates (1 mg/mL) were incubated with 4 μg anti-HER3 antibody overnight at 4° C. with slow agitation, and immune complexes were then precipitated by adding protein A/G agarose (sc-2003, Santa Cruz Biotechnology, Santa Cruz, Calif.). After incubating for 2 hours at 4° C., the beads were washed with lysis buffer, and bound proteins were eluted into the sample buffer and subjected to western blot analysis, as described above. The p-HER3 protein was then detected by using an anti-phospho-tyrosine antibody (PY-20-HRP, BD Transduction Laboratories, San Diego, Calif.). An antibody to actin was used as a loading control. […]

(−)-epigallocatechin gallate
growth inhibition of colorectal cancer cells relative to FHC normal cells (FHC): preferentially inhibit | total levels of the respective proteins [1]: no significant changes
